Measurements published in patent publication US5145855A, “6- and 7-deoxyforskolin and derivatives thereof” (Hoechst Roussel Pharmaceuticals, Inc., priority 1991, dated 1992).
≈ marks a conversion by molar mass, not a printed value.

Tested on: isolated guinea pig left atrium
Experiment: electrically-driven guinea pig left atrium contractile force assay (positive inotropic effect)
Settings: for Ionotropic Activity (% Change of Contractile Force): at the concentration of the same line (extrapolated ED50: A 0.04, B 0.073 μg/ml)
Experimental: The forskolin derivatives of the present invention are useful in the treatment of cardiac failure by virtue of their ability to elicit a positive inotropic effect as determined in the isolated guinea pig atria contractile force assay. The electrically-driven guinea pig left atrium assay is performed as follows: Male guinea pigs weighing 200-300 grams are stunned with a blow to the back of the head. The heart is rapidly removed and placed in a petri dish containing Krebs solution. The ventricle is separated from the atria, the atria are sectioned in the right and left atria, and double-O silk ligatures are tied to the apex of the left atrium. The atrium is fixed to a pair of platinum plate electrodes and suspended in a 20-ml tissue bath containing Kreb's solution aerated with 95% oxygen-5% carbon dioxide at 37° C. One end of the atrium is fixed to a hook in the electrode and the other end is connected to a Grass FTO3 force displacement transducer. Resting tension and stabilization time are the same as described above. The atrium is stimulated at 3 Hz, 0.5 msec duration at supramaximal voltage (constant current) via a Grass S88 stimulator and constant current unit. Force of contraction is continuously displaced on a Gould recorder. Test drug is prepared and is added to the tissue baths. Change in contractile force from baseline is determined for each concentration, and the change in contractile force (g) is plotted against accumulated drug concentration (μg/ml) The activity of the test drug, i.e., the increase in contractile force (g) from the stabilized force expressed as the percentage change at a given concentration is determined graphically, as is the ED50 -value, i.e., the extrapolated dose (μg/ml) which increases the contractile force by 50% over the stabilized rate.

| EC50 (Cavia porcellus, isolated left atrium, stimulated at 3 Hz, 37° C., Krebs solution, read-out: Extrapolated ED50 value (concentration which increases the contractile force by 50%)) [µg/mL] | Structure (SMILES) | Ionotropic Activity (% Change of Contractile Force) [%] | Extrapolated ED50 value (concentration which increases the contractile force by 50%) (isolated left atrium, stimulated at 3 Hz, 37° C., Krebs solution) [µg/mL] |
| --- | --- | --- | --- |
| 0.073 (≈ 0.178 µM) | C=C[C@@]1(C)CC(=O)[C@]2(O)[C@@]3(C)[C@@H](O)CCC(C)(C)[C@@H]3[C@H](O)[C@H](OC(C)=O)[C@@]2(C)O1 [B, Forskolin] | 50 | – |
| – | C=CC1(C)CC(=O)C2(O)C(C)(O1)C(Oc1ncccn1)CC1C(C)(C)CCC(O)C12C.Cl (stereo not shown) [A, 6-Deoxy-7-desacetyl-7-(pyrimidin-2-yl)forskolin hydrochloride] | 50 | 0.04 |
